Results from ChEMBL document CHEMBL2094269, “WEHI/Eskitis Trypanosoma b. brucei screening data”.
“And” between values parts separate entries of the source, which are not always exact repeats. Equal entries are not always repeated.

Tests used:
[1] = test system: Trypanosoma brucei brucei; test: microbe, parasite or virus in culture; assay type: functional, organism-based, STIB 795
Description: DNDI: Inhibition of Human African Trypanosomiasis (HAT), STIB 795, in vitro

[2] = (§1) DNDI: Cytotoxicity against human MRC-5 lung fibroblast cells.; settings: IC50
[3] = test system: MRC5; test: as §1
[4] = test system: Leishmania donovani; test: DNDI: Inhibition of formation of Leishmania donovani (strain MHOM/ET/67/L82) axenic amastigotes, in vitro.; assay type: functional, organism-based
[5] = test system: Plasmodium falciparum; test: DNDI: Inhibition of the malaria parasite Plasmodium falciparum, in vitro; assay type: functional, organism-based; settings: K1
[6] = test system: Trypanosoma brucei rhodesiense; test: DNDI: Inhibition of Human African Trypanosomiasis (HAT), STIB 900, in vitro; assay type: functional, organism-based
[7] = DNDI: Cytotoxicity against L-6 rat myoblasts from skeletal muscle.; assay type: toxicity, cell-based, Muscle tissue, L6; settings: L-6 rat skeletal muscle myoblast cells
[8] = test system: Trypanosoma cruzi; test: DNDI: Inhibition of Chagas Disease parasite Trypanosoma cruzi (Tulahuen LacZ, Clone C4), in vitro.; assay type: functional, organism-based

| SMILES | IC50 ([1]; Trypanosoma brucei, STIB 795) [µM] | IC50 [2] [µM] | also measured |
| --- | --- | --- | --- |
| CCOC(=O)CNC(=O)C(Cc1ccccc1)NS(=O)(=O)c1cccs1 (stereo unspecified) | 5.51 | > 41.7 |  |
| Cc1ccc2[nH]c3c(c2c1)CCCC3CN (stereo unspecified) | 1.22 | > 10.4 | IC50 [1]: 0.664 µM; IC50 [3]: > 20.8 µM |
| O=S(=O)(Nc1ccc(O)c(-c2c(O)ccc3ccccc23)c1)c1cccs1 | 5 | > 41.7 |  |
| CN1CCN(c2nc(Nc3ccc(F)cc3)nc(Nc3ccc(F)cc3)n2)CC1 | 5.11 | > 41.7 |  |
| Cc1ccc(-c2cnc3ccccc3[n+]2C)c(C)c1 |  | > 20.8 | IC50 [1]: 0.739 µM and 3.32 µM; IC50 [3]: > 10.4 µM |
| Cc1cc(=O)[nH]c(-n2nc(C)cc2NC(=O)C2CCCC2)n1 | 0.435 | > 10.4 | IC50 [4]: 0.143 µM; IC50 [5]: 2.39 µM; IC50 [6]: 1.42 µM; IC50 [7]: 0.265 µM; IC50 [8]: 4.5 µM |
| CC(C)(C)C(=O)NCCc1csc(-c2cccc(F)c2)n1 | 0.441 | > 41.7 | IC50 [4]: 14.1 µM; IC50 [5]: 10.8 µM; IC50 [6]: 0.451 µM; IC50 [7]: 19.1 µM; IC50 [8]: 0.709 µM |
| O=C(CCc1ccccc1)N/N=C/c1ccc(O)c2ncccc12 | 0.484 | > 10.4 | IC50 [1]: 0.456 µM; IC50 [3]: > 20.8 µM |
| O=C(NCCc1n[nH]c(-c2ccc(F)cc2)n1)c1cccc(F)c1 | 1.93 | > 41.7 | IC50 [4]: 15.5 µM; IC50 [5]: 7.85 µM; IC50 [6]: 2.22 µM; IC50 [7]: 39.2 µM; IC50 [8]: 6.35 µM |
| COc1ccc2[nH]c(C)c(CCNCCC3=C(C)CCCC3(C)C)c2c1 | 1.33 | 5.93 | IC50 [1]: 1.76 µM; IC50 [3]: 4.92 µM |
| CC1=NN(c2cccc(Cl)c2)C(=O)/C1=C\NNC(=O)c1ccccc1 | 1.49 | > 4.17 | IC50 [1]: 1.92 µM; IC50 [3]: 4.6 µM |
| COc1ccc(C(NC(=O)C(C)C)c2ccc3cccnc3c2O)cc1OC (stereo unspecified) |  | 2.29 | IC50 [1]: 2.78 µM and 1.08 µM; IC50 [3]: > 4.17 µM |
| CCc1ccccc1/N=C(\NCCN1CCOCC1)NC(=O)c1ccccc1 | 0.681 | > 41.7 | IC50 [4]: 83.9 µM; IC50 [5]: 2.02 µM; IC50 [6]: 0.333 µM; IC50 [7]: 50.3 µM; IC50 [8]: 31.2 µM |
| CCCCNCc1cc(Br)c(OCc2ccc(F)cc2)c(OC)c1 | 4 | > 41.7 |  |
| C=CCc1cccc(/C=N/NC(=O)c2cc(-c3ccc4ccccc4c3)n[nH]2)c1O | 3 | > 41.7 |  |
| CC(C)=C1C2CCC1C1C(=O)N(NC(=O)C(C)Oc3ccc(C)c(C)c3)C(=O)C21 (stereo unspecified) | 5.39 | > 41.7 |  |
| COc1ccc(-n2nc(N3CCCC(C(=O)NC4CCCC4)C3)ccc2=O)cc1 (stereo unspecified) | 2.28 | > 41.7 |  |

| SMILES | IC50 ([1]; Trypanosoma brucei, STIB 795) [µM] | IC50 [2] [µM] | also measured |
| --- | --- | --- | --- |
| CCCc1cc(=O)[nH]c(-n2nc(C)cc2NC(=O)c2ccc(OC)c(OC)c2)n1 | 5.28 | > 41.7 |  |
| COCC(=O)N/N=C/c1ccc(SCC(=O)Nc2ccc3ccccc3c2)o1 | 6.86 | > 41.7 |  |
| CCOC(=O)c1ccc(NC(=O)C2CCCN(C(=O)c3ccccc3F)C2)cc1 (stereo unspecified) | 56.3 | > 20.8 |  |
| COC(=O)c1c(SCC(=O)Nc2cccc(OC)c2)[nH]c2ccccc2c1=O | 4.55 | > 20.8 |  |
| CCS(=O)(=O)N1CCCc2ccc(NS(=O)(=O)c3ccccc3F)cc21 | 1.3 | > 41.7 | IC50 [4]: 2.63 µM; IC50 [5]: 5.02 µM; IC50 [6]: 5.81 µM; IC50 [7]: 8.64 µM; IC50 [8]: 5.87 µM |
| CCn1c(SCC(=O)N/N=C(\C)c2ccc(O)c(OC)c2)nc2ccccc21 | 5.06 | > 41.7 |  |
| CCN(CC)c1ccc(C(Nc2ccccn2)c2ccc3cccnc3c2O)cc1 (stereo unspecified) | 8.71 | > 20.8 |  |
| Cc1ccsc1/C=C(\C(=O)NCc1cccnc1)S(=O)(=O)c1ccccc1 | 5.29 | > 20.8 |  |
| COc1cc(-n2nnn(C3CC(=O)C4OCC3O4)c2=S)c(OC)cc1Cl (stereo unspecified) |  | > 20.8 | IC50 [1]: > 10.4 µM and 4.74 µM |
| N=C(N)N/N=C(/C=C(\c1ccc(Cl)cc1)n1ccnc1)c1ccc(Cl)cc1 | 3 | > 10.4 |  |
| CCC(=O)N(CC(CC(C)C)N1CCN(C)CC1)c1ccc(C2CCCC2)cc1 (stereo unspecified) | 4.79 | > 41.7 |  |
| N=c1n(CCOc2ccccc2)c2ccccc2n1CCN1CCCCC1 |  | > 20.8 | IC50 [1]: 2.98 µM and > 10.4 µM |
| O=C(NC(c1ccc2c(c1)OCO2)c1ccc2cccnc2c1O)c1ccccc1 (stereo unspecified) | 4.91 | > 4.17 |  |
| CNC1=C(N(C(C)=O)c2ccc(Br)cc2)C(=O)c2ccccc2C1=O | 0.515 | 4.88 |  |
| CN(C)c1ccc2nc3ccc(=[N+](C)C)cc-3sc2c1 [METHYLENE BLUE CATION] | < 0.02 | > 2.08 |  |
| Cc1ccc2ccc3ccc(C)nc3c2n1 [NEOCUPROINE] | 0.557 | > 20.8 |  |
